According to patent publication US20260159512A1, “BCAT2 INHIBITORS” (AGIOS PHARMACEUTICALS, INC., priority 2021, published 2026):

Assays:
Details in all cases: average where tested multiple times
BCAT2 [1] = target: T1, BCAT2 (Homo sapiens, UniProt O15382); assay: BCAT2 in vitro enzyme inhibition assay (resazurin/diaphorase-coupled fluorescence); format: biochemical
T1 sequence (O15382 28-392): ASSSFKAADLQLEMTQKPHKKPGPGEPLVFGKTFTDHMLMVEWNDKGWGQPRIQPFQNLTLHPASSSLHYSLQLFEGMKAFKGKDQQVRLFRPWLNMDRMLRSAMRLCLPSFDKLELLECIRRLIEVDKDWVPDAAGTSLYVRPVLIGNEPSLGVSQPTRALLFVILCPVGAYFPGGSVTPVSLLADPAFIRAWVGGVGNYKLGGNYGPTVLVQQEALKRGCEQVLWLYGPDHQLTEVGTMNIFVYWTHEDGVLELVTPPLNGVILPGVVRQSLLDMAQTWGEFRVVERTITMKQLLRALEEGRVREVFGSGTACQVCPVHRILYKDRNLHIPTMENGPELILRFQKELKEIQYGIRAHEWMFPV
Summary of the method: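 Coupled fluorescence readout: glutamate formed from L-leucine/α-ketoglutarate transamination drives GDH/NAD/diaphorase reduction of resazurin (Ex 540/Em 590). Human BCAT2 was first exposed 1 h at room temperature to compound, top final 100 μM in 3-fold, 10-point series; substrate reaction ran 1 h before SDS quench, in technical duplicate with DMSO max and enzyme-free min controls.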

hBCAT1 = target: T2, hBCAT1 (Homo sapiens, UniProt P54687); assay: BCAT1 in vitro enzyme inhibition assay (resazurin/diaphorase-coupled fluorescence); format: biochemical
T2 sequence (P54687 1-386): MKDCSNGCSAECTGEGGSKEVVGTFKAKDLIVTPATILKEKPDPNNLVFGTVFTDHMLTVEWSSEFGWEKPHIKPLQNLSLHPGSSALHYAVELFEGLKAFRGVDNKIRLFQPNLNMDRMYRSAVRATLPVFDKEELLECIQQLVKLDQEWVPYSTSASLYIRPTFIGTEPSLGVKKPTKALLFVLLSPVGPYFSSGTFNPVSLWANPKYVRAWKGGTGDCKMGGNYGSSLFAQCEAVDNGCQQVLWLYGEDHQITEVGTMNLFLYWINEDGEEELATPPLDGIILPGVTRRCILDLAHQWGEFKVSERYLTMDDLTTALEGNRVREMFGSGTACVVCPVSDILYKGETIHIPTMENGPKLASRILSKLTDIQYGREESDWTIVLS
Summary of the method: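 Human BCAT1 activity read by resazurin/diaphorase-coupled fluorescence. Compounds added from 50× DMSO stocks at 1:50, giving 10-point 3-fold titrations from 100 μM top final concentration. Run in technical duplicate; repeat tests averaged.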

BCAT2 [2] = target: T1, BCAT2; assay: BCAT2 in vitro cell inhibition using engineered A549 cells (KMV cell assay, 13C6-KMV by LC-MS/MS); format: cell-based; design: The result was an engineered A549 cell line that expressed endogenous BCAT2; endogenous in cells; host or cells: A549 cells with MUT and BCAT1 knocked out by CRISPR/CAS9; key to BCAT2 Cell Inhibition: A: less than or equal to 0.100 μM; B: greater than 0.100 and less than or equal to 0.500 μM; C: greater than 0.500 and less than or equal to 1.000 μM; d: greater than 1.000 μM; E: no fit

Compound	IC50 (BCAT2 [1]) [nM]	IC50 (hBCAT1) [nM]	IC50 (BCAT2 [2]) [nM]	BCAT2 Cell Inhibition (BCAT2 [2])
O=C(N[C@H]1CCC[C@@H](n2c(-c3ccccc3F)nc3cc(-n4ccnn4)ncc32)C1)c1ncc(C(F)F)s1 [Example 149, 5-(difluoromethyl)-N-((1S,3R)-3-(2-(2-fluorophenyl)-6-(1H-1,2,3-triazol-1-yl)-3H-imidazo[4,5-c]pyridin-3-yl)cyclohexyl)thiazole-2-carboxamide]	≤ 100	1000 to 5000	100 to 500	
CC(C)Cc1nc2cnc(-c3ccccn3)cc2n1[C@H]1C[C@@H](NC(=O)c2ncc(Cl)s2)CN(C)C1 [Example 262, 5-chloro-N-((3R,5S)-5-(2-isobutyl-6-(pyridin-2-yl)-1H-imidazo[4,5-c]pyridin-1-yl)-1-methylpiperidin-3-yl)thiazole-2-carboxamide]	100 to 500	> 5000	> 1000	
Cc1noc(C)c1-c1nc2cnc(-n3nccn3)cc2n1[C@@H]1CCC[C@H](NC(=O)c2ncc(C(F)F)s2)C1 [Example 47, 5-(difluoromethyl)-N-((1S,3R)-3-(2-(3,5-dimethylisoxazol-4-yl)-6-(2H-1,2,3-triazol-2-yl)-1H-imidazo[4,5-c]pyridin-1-yl)cyclohexyl)thiazole-2-carboxamide]	500 to 1000	> 5000		E
O=C(N[C@H]1CCC[C@@H](n2c(-c3ccccc3F)nc3cnc(-n4nccn4)nc32)C1)c1ncc(C(F)F)s1 [Example 62, 5-(difluoromethyl)-N-((1S,3R)-3-(8-(2-fluorophenyl)-2-(2H-1,2,3-triazol-2-yl)-9H-purin-9-yl)cyclohexyl)thiazole-2-carboxamide]	≤ 100	500 to 1000	≤ 100	
CC(C)(C)Cc1nc2cnc(-n3nccn3)cc2n1[C@@H]1CCC[C@H](NC(=O)c2ccc(Cl)s2)[C@H]1O [Example 387, 5-chloro-N-((1S,2R,3R)-2-hydroxy-3-(2-neopentyl-6-(2H-1,2,3-triazol-2-yl)-1H-imidazo[4,5-c]pyridin-1-yl)cyclohexyl)thiophene-2-carboxamide]	≤ 100	< 500	≤ 100	
COc1cccc(F)c1-c1nc2cnc(-c3nc[nH]n3)cc2n1[C@@H]1CCC[C@H](NC(=O)c2ccc(Cl)s2)C1 [Example 347, 5-chloro-N-((1S,3R)-3-(2-(2-fluoro-6-methoxyphenyl)-6-(1H-1,2,4-triazol-3-yl)-1H-imidazo[4,5-c]pyridin-1-yl)cyclohexyl)thiophene-2-carboxamide]	≤ 100	< 500	≤ 100	
O=C(N[C@H]1CCC[C@@H](n2c(-c3ccccc3F)nc3cnc(-n4nccn4)cc32)C1)c1ccc(Br)s1 [Example 15, 5-bromo-N-((1S,3R)-3-(2-(2-fluorophenyl)-6-(2H-1,2,3-triazol-2-yl)-1H-imidazo[4,5-c]pyridin-1-yl)cyclohexyl)thiophene-2-carboxamide]	≤ 100	< 500	≤ 100	
CC(C)C(O)c1nc2cnc(-c3nc[nH]n3)cc2n1[C@@H]1CCC[C@H](NC(=O)c2ncc(Cl)s2)C1 (single isomer, unassigned) [Example 183]	≤ 100	< 500	100 to 500	
COc1ccc(-c2nc3cnc(-c4nc[nH]n4)cc3n2[C@@H]2CCC[C@H](NC(=O)c3ccc(Cl)s3)C2)c(F)c1 [Example 351, 5-chloro-N-((1S,3R)-3-(2-(2-fluoro-4-methoxyphenyl)-6-(1H-1,2,4-triazol-3-yl)-1H-imidazo[4,5-c]pyridin-1-yl)cyclohexyl)thiophene-2-carboxamide]	100 to 500	1000 to 5000	500 to 1000	
N#Cc1cccc(-c2nc3cnc(-c4nc[nH]n4)cc3n2[C@@H]2CCC[C@H](NC(=O)c3ccc(Cl)s3)C2)c1F [Example 365, 5-chloro-N-((1S,3R)-3-(2-(3-cyano-2-fluorophenyl)-6-(1H-1,2,4-triazol-3-yl)-1H-imidazo[4,5-c]pyridin-1-yl)cyclohexyl)thiophene-2-carboxamide]	≤ 100	1000 to 5000	> 1000	
CNC(=O)c1cc2nc(-c3ccccc3F)n(C3CC(NC(=O)c4ccc(Br)s4)CN(C)C3)c2cc1OC (stereo not drawn) [Example 291, 1-(5-(5-bromothiophene-2-carboxamido)-1-methylpiperidin-3-yl)-2-(2-fluorophenyl)-6-methoxy-N-methyl-1H-benzo[d]imidazole-5-carboxamide]	≤ 100	1000 to 5000	100 to 500	
O=C(N[C@H]1CCC[C@@H](n2c(C3CCCOC3)nc3cnc(-c4nc[nH]n4)cc32)C1)c1ncc(Cl)s1 (single isomer, unassigned) [Example 103]	≤ 100	500 to 1000	100 to 500	
CC(C)Cc1nc2cnc(-c3nc[nH]n3)cc2n1[C@@H]1CCC[C@H](NC(=O)c2ncc(Cl)s2)[C@H]1O [Example 250, 5-chloro-N-((1S,2R,3R)-2-hydroxy-3-(2-isobutyl-6-(1H-1,2,4-triazol-3-yl)-1H-imidazo[4,5-c]pyridin-1-yl)cyclohexyl)thiazole-2-carboxamide]	≤ 100	< 500	≤ 100	

Further lines, results first:

IC50 (BCAT2 [1]) [nM]	IC50 (hBCAT1) [nM]	IC50 (BCAT2 [2]) [nM]	BCAT2 Cell Inhibition (BCAT2 [2])	Compound
≤ 100	1000 to 5000	100 to 500		COc1ccc(F)c(-c2nc3cnc(-c4nc[nH]n4)cc3n2[C@@H]2CCC[C@H](NC(=O)c3ccc(Cl)s3)C2)c1 [Example 343, 5-chloro-N-((1S,3R)-3-(2-(2-fluoro-5-methoxyphenyl)-6-(1H-1,2,4-triazol-3-yl)-1H-imidazo[4,5-c]pyridin-1-yl)cyclohexyl)thiophene-2-carboxamide]
≤ 100	< 500	≤ 100		Cn1ccc(-c2cc3c(cn2)nc(-c2ccccc2F)n3[C@@H]2CCC[C@H](NC(=O)c3ncc(Cl)s3)C2)n1 [Example 181, 5-chloro-N-((1S,3R)-3-(2-(2-fluorophenyl)-6-(1-methyl-1H-pyrazol-3-yl)-1H-imidazo[4,5-c]pyridin-1-yl)cyclohexyl)thiazole-2-carboxamide]
≤ 100	< 500	≤ 100		CC(C)(C)Cc1nc2cnc(-c3nc[nH]n3)cc2n1[C@@H]1CCC[C@H](NC(=O)c2ncc(Cl)s2)C1 [Example 162, 5-chloro-N-((1S,3R)-3-(2-neopentyl-6-(1H-1,2,4-triazol-3-yl)-1H-imidazo[4,5-c]pyridin-1-yl)cyclohexyl)thiazole-2-carboxamide]
≤ 100	1000 to 5000	500 to 1000		CNC(=O)c1cc2nc(CC(C)C)n([C@@H]3CCC[C@H](NC(=O)c4ncc(Cl)s4)[C@H]3O)c2cn1 (single isomer, unassigned) [Example 280]
≤ 100	< 500	> 1000		Nc1cc2c(cn1)nc(-c1ccccc1F)n2[C@@H]1C[C@@H](O)C[C@H](NC(=O)c2ncc(Cl)s2)C1 [Example 270, N-((1R,3S,5S)-3-(6-amino-2-(2-fluorophenyl)-1H-imidazo[4,5-c]pyridin-1-yl)-5-hydroxycyclohexyl)-5-chlorothiazole-2-carboxamide]
≤ 100	1000 to 5000	500 to 1000		O=C(N[C@H]1CCC[C@@H](n2c(-c3ccccn3)nc3cnc(-n4ccnn4)cc32)C1)c1ccc(Br)s1 [Example 10, 5-bromo-N-((1S,3R)-3-(2-(pyridin-2-yl)-6-(1H-1,2,3-triazol-1-yl)-1H-imidazo[4,5-c]pyridin-1-yl)cyclohexyl)thiophene-2-carboxamide]
≤ 100	> 5000	100 to 500		O=C(N[C@H]1CCC[C@@H](n2c(Oc3ccccc3)nc3cnc(-n4nccn4)cc32)C1)c1ccc(Br)s1 [Example 63, 5-bromo-N-((1S,3R)-3-(2-phenoxy-6-(2H-1,2,3-triazol-2-yl)-1H-imidazo[4,5-c]pyridin-1-yl)cyclohexyl)thiophene-2-carboxamide]
